In the CheMixHub viscosity set:

Assay: xn = mol fraction of the nth substance listed

O=C1CCCCC1 + CCCCCCCCCC
viscosity [mPa·s], 101.33 kPa
Conditions	x1 = 0.1023	x1 = 0.2073	x1 = 0.3011	x1 = 0.4017	x1 = 0.5042	x1 = 0.6034	x1 = 0.703	x1 = 0.8	x1 = 0.9018
298.15 K	0.87	0.902	0.937	0.991	1.063	1.143	1.256	1.439	1.625
303.15 K	0.806	0.836	0.868	0.916	0.984	1.053	1.152	1.316	1.48
308.15 K	0.752	0.779	0.812	0.851	0.909	0.973	1.064	1.212	1.357

CCOCC + CCCO
101 kPa
Conditions	viscosity [mPa·s]
298.15 K, x1 = 0.09896	1.404
298.15 K, x1 = 0.1949	1.024
298.15 K, x1 = 0.3032	0.753
298.15 K, x1 = 0.4198	0.562
298.15 K, x1 = 0.5476	0.427
298.15 K, x1 = 0.6864	0.336
298.15 K, x1 = 0.8353	0.272
303.16 K, x1 = 0.07	1.682
303.16 K, x1 = 0.15	1.591
303.16 K, x1 = 0.25	1.417
303.16 K, x1 = 0.37	1.237
303.16 K, x1 = 0.47	0.8879
303.16 K, x1 = 0.59	0.6163
303.16 K, x1 = 0.73	0.4922
303.16 K, x1 = 0.78	0.3645
303.16 K, x1 = 0.92	0.2804

CCOCC + CCO
298.15 K, 101 kPa
Conditions	viscosity [mPa·s]
x1 = 0.1577	0.741
x1 = 0.3593	0.478
x1 = 0.4569	0.4
x1 = 0.5301	0.359
x1 = 0.6268	0.315
x1 = 0.6925	0.29
x1 = 0.7978	0.264

CC(=O)CC(C)C + CC(C)CCO
viscosity [mPa·s]
Conditions	x1 = 0.1006	x1 = 0.2027	x1 = 0.3201	x1 = 0.3948	x1 = 0.5073	x1 = 0.6072	x1 = 0.7013	x1 = 0.8032	x1 = 0.8927
298.15 K, 101 kPa	2.58	1.89	1.4	1.2	0.965	0.839	0.728	0.648	0.595
298.15 K, 101.3 kPa	2.58	1.89	1.4	1.2	0.965	0.839	0.728	0.648	0.595
303.15 K, 101.3 kPa	2.26	1.69	1.28	1.1	0.903	0.781	0.682	0.617	0.566
308.15 K, 101.3 kPa	1.99	1.51	1.17	1.01	0.837	0.728	0.64	0.579	0.534
313.15 K, 101.3 kPa	1.75	1.36	1.05	0.926	0.766	0.681	0.602	0.545	0.506

CCOCC + CC(=O)O
viscosity [mPa·s], 101 kPa
Conditions	x2 = 0.124	x2 = 0.2575	x2 = 0.5649	x2 = 0.6393	x2 = 0.749	x2 = 0.9116
293.15 K	0.3184	0.3737	0.5451	0.6641	–	1.048
303.15 K	0.2837	0.3354	0.483	0.5903	0.7376	0.8999
313.15 K	–	0.3088	–	0.5215	0.6621	0.791
323.15 K	–	–	0.3937	0.4665	0.5877	0.6835

O=C1CCCCC1 + CCCCCCCCC
viscosity [mPa·s], 101.33 kPa
Conditions	x1 = 0.0999	x1 = 0.1981	x1 = 0.3012	x1 = 0.4032	x1 = 0.4987	x1 = 0.6007	x1 = 0.6942	x1 = 0.7981	x1 = 0.9006
298.15 K	0.683	0.726	0.772	0.833	0.909	1.022	1.134	1.321	1.544
303.15 K	0.639	0.675	0.718	0.775	0.842	0.936	1.043	1.21	1.41
308.15 K	0.6	0.632	0.672	0.723	0.784	0.869	0.967	1.116	1.294

CCOCC + Cc1ccccc1
viscosity [mPa·s], 101 kPa
Conditions	293.15 K	298.15 K	303.15 K	308.15 K
x2 = 0.21	0.3	0.29	0.281	0.272
x2 = 0.45	0.379	0.36	0.345	0.331
x2 = 0.71	0.468	0.445	0.419	0.404

CC(=O)CC(C)C + CCCC(C)O
viscosity [mPa·s], 101.3 kPa
Conditions	x1 = 0.1036	x1 = 0.2131	x1 = 0.3003	x1 = 0.3959	x1 = 0.5098	x1 = 0.5963	x1 = 0.6924	x1 = 0.7942	x1 = 0.9001
298.15 K	2.26	1.61	1.32	1.12	0.924	0.821	0.712	0.646	0.589
303.15 K	1.93	1.41	1.16	1.01	0.848	0.76	0.664	0.607	0.557
308.15 K	1.65	1.25	1.05	0.91	0.78	0.705	0.62	0.571	0.527
313.15 K	1.41	1.1	0.965	0.837	0.718	0.658	0.601	0.553	0.502

CCOCC + COCCO
298.15 K, 101 kPa
Conditions	viscosity [mPa·s]
x2 = 0.0976	0.2661
x2 = 0.1958	0.307
x2 = 0.2944	0.363
x2 = 0.3936	0.4399
x2 = 0.4933	0.5713
x2 = 0.5936	0.6782
x2 = 0.6944	0.8546
x2 = 0.7957	1.065
x2 = 0.8976	1.33

CCOCC + Nc1ccccc1
298.15 K, 101 kPa
Conditions	viscosity [mPa·s]
x1 = 0.3027	1.359
x1 = 0.5488	0.669
x1 = 0.7838	0.38

O=C1CCCCC1 + c1ccccc1
viscosity [mPa·s]
Conditions	298.15 K	303.15 K	308.15 K
101 kPa, x1 = 0.0989	0.674	–	–
101 kPa, x1 = 0.1983	0.731	–	–
101 kPa, x1 = 0.2984	0.8	–	–
101 kPa, x1 = 0.3848	0.865	–	–
101 kPa, x1 = 0.5166	0.856	–	–
101 kPa, x1 = 0.5909	1.086	–	–
101 kPa, x1 = 0.6876	1.37	–	–
101 kPa, x1 = 0.7775	1.481	–	–
101 kPa, x1 = 0.8574	1.534	–	–
101.33 kPa, x1 = 0.1014	0.661	0.616	0.574
101.33 kPa, x1 = 0.1996	0.726	0.676	0.629
101.33 kPa, x1 = 0.3037	0.803	0.747	0.694
101.33 kPa, x1 = 0.4039	0.888	0.824	0.771
101.33 kPa, x1 = 0.502	0.996	0.942	0.85
101.33 kPa, x1 = 0.5997	1.122	1.026	0.945
101.33 kPa, x1 = 0.7018	1.28	1.175	1.084
101.33 kPa, x1 = 0.8023	1.472	1.346	1.236
101.33 kPa, x1 = 0.9237	1.773	1.61	1.472

OCCOc1ccccc1 + CCCCCCO
viscosity [mPa·s], 101 kPa
Conditions	x2 = 0.1	x2 = 0.201	x2 = 0.301	x2 = 0.401	x2 = 0.501	x2 = 0.601	x2 = 0.701	x2 = 0.801	x2 = 0.9
303.15 K	10.95	9.244	8.099	7.25	6.508	5.696	4.981	4.335	3.978
313.15 K	7.906	7.005	6.239	5.548	4.764	4.151	3.605	3.222	2.981
323.15 K	5.285	4.821	4.389	3.866	3.518	3.128	2.716	2.358	2.148

CC(C)CC(C)(C)C + C1COCCO1
viscosity [mPa·s], 101 kPa
Conditions	x2 = 0.1085	x2 = 0.2061	x2 = 0.2943	x2 = 0.3746	x2 = 0.515	x2 = 0.6337	x2 = 0.6865	x2 = 0.8237	x2 = 0.9008
293.15 K	0.5237	0.5426	0.5664	0.5961	0.6613	0.7446	0.7922	0.9589	1.083
298.15 K	0.4947	0.5119	0.5334	0.561	0.6252	0.6968	0.7388	0.885	0.9979
303.15 K	0.4683	0.4835	0.5036	0.5289	0.5825	0.6529	0.6909	0.8248	0.9282
308.15 K	0.4438	0.4578	0.4761	0.4992	0.5485	0.6141	0.6485	0.7634	0.857
313.15 K	0.4211	0.4352	0.4507	0.4727	0.5181	0.5788	0.6082	0.7242	0.7993
